Assay results published in the NIST ThermoML archive (doi:10.1016/j.jct.2015.09.022).

Experiments:
[1] = 100.7 kPa, Liquid; for viscosity: Falling or rolling sphere viscometry; for speed of sound: Frequency=3 MHz, Sing-around technique in a fixed-path interferometer; for mass density: Vibrating tube method
[2] = xn = mol fraction of the nth substance listed; conditions: 100.7 kPa, Liquid; for viscosity: Falling or rolling sphere viscometry; for speed of sound: Frequency=3 MHz, Sing-around technique in a fixed-path interferometer; for mass density: Vibrating tube method

CCCC[n+]1ccn(C)c1.O=S(=O)([N-]S(=O)(=O)C(F)(F)F)C(F)(F)F
[1]
Conditions | mass density [kg/m3] | speed of sound [m/s] | viscosity [mPa·s]
298.15 K | 1436.82 | 1227.8 | 50.04
303.15 K | 1431.98 | 1217.5 | 40.72
308.15 K | 1427.16 | 1205.2 | 33.73
313.15 K | 1422.37 | 1194.4 | 28.28
318.15 K | 1417.6 | 1184.5 | 24.01
323.15 K | 1412.86 | 1171.3 | 20.32

CCCC[n+]1ccn(C)c1.O=S(=O)([N-]S(=O)(=O)C(F)(F)F)C(F)(F)F + CCCC=O
[2], x1 = 1
Conditions | mass density [kg/m3] | speed of sound [m/s] | viscosity [mPa·s]
298.15 K | 1436.82 | 1227.8 | 50.04
303.15 K | 1431.98 | 1217.5 | 40.72
308.15 K | 1427.16 | 1205.2 | 33.73
313.15 K | 1422.37 | 1194.4 | 28.28
318.15 K | 1417.6 | 1184.5 | 24.01
323.15 K | 1412.86 | 1171.3 | 20.32

CCCC[n+]1ccn(C)c1.O=S(=O)([N-]S(=O)(=O)C(F)(F)F)C(F)(F)F + CCCCN
[2], x1 = 1
Conditions | mass density [kg/m3] | speed of sound [m/s] | viscosity [mPa·s]
298.15 K | 1436.82 | 1227.8 | 50.04
303.15 K | 1431.98 | 1217.5 | 40.72
308.15 K | 1427.16 | 1205.2 | 33.73
313.15 K | 1422.37 | 1194.4 | 28.28
318.15 K | 1417.6 | 1184.5 | 24.01
323.15 K | 1412.86 | 1171.3 | 20.32

CCCCN [1-butanamine]
[1]
Conditions | mass density [kg/m3] | speed of sound [m/s] | viscosity [mPa·s]
298.15 K | 733.33 | 1246.5 | 0.47
303.15 K | 728.5 | 1223.9 | 0.44
308.15 K | 723.67 | 1201.3 | 0.41
313.15 K | 718.66 | 1178.7 | 0.39
318.15 K | 714.1 | 1156.2 | 0.37
323.15 K | 709.21 | 1133.5 | 0.35

CCCC=O [butanal]
[1]
Conditions | mass density [kg/m3] | speed of sound [m/s] | viscosity [mPa·s]
298.15 K | 796.99 | 1193.8 | 0.43
303.15 K | 791.8 | 1172.7 | 0.4
308.15 K | 786.41 | 1151.6 | 0.39
313.15 K | 781.37 | 1130.6 | 0.36
318.15 K | 776.39 | 1109.6 | 0.35
323.15 K | 771.3 | 1088.8 | 0.32

CCCCOC(C)=O [butyl ethanoate]
[1]
Conditions | viscosity [mPa·s]
298.15 K | 0.67
303.15 K | 0.64
308.15 K | 0.58
313.15 K | 0.57
318.15 K | 0.53
323.15 K | 0.5

CCCCOC(C)=O [butyl ethanoate] + CCCC[n+]1ccn(C)c1.O=S(=O)([N-]S(=O)(=O)C(F)(F)F)C(F)(F)F
[2], x2 = 0
Conditions | mass density [kg/m3] | speed of sound [m/s] | viscosity [mPa·s]
298.15 K | 876 | 1190.5 | 0.67
303.15 K | 870.86 | 1169.8 | 0.64
308.15 K | 865.69 | 1149.2 | 0.58
313.15 K | 860.49 | 1128.8 | 0.57
318.15 K | 855.28 | 1108.5 | 0.53
323.15 K | 850.03 | 1088.3 | 0.5
